Several values for one entry are separate records, joined by “and”; a condition that tells them apart may be missing. Equal entries are not always repeated. Where two headings read alike, the source gives them in different places. Blank lines part the entries; values can stand above or below the molecule they belong to.
Assays:
PI3Kα^WT (p110α/p85α) = target: T1, PI3Kα^WT (p110α/p85α) (Homo sapiens, UniProt P42336); assay: PI3K homogenous time-resolved fluorescence (HTRF) lipid kinase IC50 determination; type: biochemical; details: HTRF assay using PIP2 as substrate; Mean ± SD, n=2; enzyme 40 ng/ml; read-out: IC50 PI3Kα (Table S3)
T1 construct: made in house; host or cells: Sf9 insect cells (baculovirus)
Method: (§1) IC50 values were determined using the PI3K homogenous time-resolved fluorescence assay (Merck Millipore, #33-016) following the manufacturer's instructions as previously described. […] Data was graphed and analysed with Graphpad Prism 6, nonlinear regression with log(inhibitor) vs. response and constraints set at 0% and 100%.
(§2) (1 picture or pasted object on this page, not shown here)
(§3) Enzymes were used at PI3KαWT 40 ng/ml, PI3KβWT as either 400 ng/ml or 300 ng/ml,
(§4) and PI3K δWT was 65 ng/ml. Plates were read on a PHERAStar HTS microplate reader

PI3Kα^WT [1] = target: T2, PI3Kα^WT (Homo sapiens, UniProt P42336); assay: BLI membrane binding assay (immobilised liposomes); details: for effect on P2pY-activated PI3Kα^WT membrane interaction (BLI wavelength shift): 1 µM PI3Kα^WT, 300 s, GSK2126458 4 µM, PIK-75 20 µM, 6 4 µM, 7 10 µM, GDC0032 10 µM, AS252424 10 µM, AMP-PNP 2 mM with 5 mM Mg2+; for Bmax (binding capacity) of PI3Kα^WT membrane interaction in presence of inhibitor: pY activated, inhibitor:protein 4:1, Mean ± SEM
T2 construct: using full length PI3Kα^WT and PI3Kα^H1047R up to 1 μM; made in house; host or cells: Sf9 insect cells (baculovirus)
Method: BLI is a label-free dip-and-read method that uses wavelength changes in reflected incidental white light to report on changes in thickness of the lipid vesicles immobilised on a biosensor from protein binding.
(§5) BLI experiments were carried out with a BLItz® System (ForteBIO) using aminopropylsilane (APS) biosensors. The APS biosensors (ForteBIO #18-5045) were hydrated for 15–20 min in either Tris or HEPES liposome buffer. The program option used was Advanced Kinetics. Liposome membrane preparation was performed using a 0.5 mg/ml liposome solution of PIP2: PS: PE: PC: C: S (Avanti polar lipids) in the mass percentages of 5: 20: 45: 15: 10: 5. Liposomes without PIP2 were prepared as PS: PE: PC: C: S in the percentage of […]. Liposomes without PS were prepared as PIP2: PE: PC: C: S in the percentage of 5: 65: 15: 10: 5. […] P2pY and inhibitor, or DMSO only were also added to achieve a final protein concentration of 200 μg/ml, a pY concentration of 10 μM, and total DMSO content of 3%. The mixture was incubated at room temperature for 10 min prior to the protein association experiments. The membrane coated biosensors were first dipped in Buffer D containing 3% DMSO for 30 s to set an initial baseline, and transferred to the protein in the presence or absence of inhibitor. Protein binding was followed for 300 s, and then the biosensors were dipped in Buffer D with 3% DMSO again for 300 s for protein dissociation. […] PI3Kα^M1043I used 0.125, 0.25, 0.5, 1 and 1.57 µM. The results of liposome loading and protein association were then analysed and graphed using GraphPad Prism 6.
Target sequence in this assay (P42336 whole entry): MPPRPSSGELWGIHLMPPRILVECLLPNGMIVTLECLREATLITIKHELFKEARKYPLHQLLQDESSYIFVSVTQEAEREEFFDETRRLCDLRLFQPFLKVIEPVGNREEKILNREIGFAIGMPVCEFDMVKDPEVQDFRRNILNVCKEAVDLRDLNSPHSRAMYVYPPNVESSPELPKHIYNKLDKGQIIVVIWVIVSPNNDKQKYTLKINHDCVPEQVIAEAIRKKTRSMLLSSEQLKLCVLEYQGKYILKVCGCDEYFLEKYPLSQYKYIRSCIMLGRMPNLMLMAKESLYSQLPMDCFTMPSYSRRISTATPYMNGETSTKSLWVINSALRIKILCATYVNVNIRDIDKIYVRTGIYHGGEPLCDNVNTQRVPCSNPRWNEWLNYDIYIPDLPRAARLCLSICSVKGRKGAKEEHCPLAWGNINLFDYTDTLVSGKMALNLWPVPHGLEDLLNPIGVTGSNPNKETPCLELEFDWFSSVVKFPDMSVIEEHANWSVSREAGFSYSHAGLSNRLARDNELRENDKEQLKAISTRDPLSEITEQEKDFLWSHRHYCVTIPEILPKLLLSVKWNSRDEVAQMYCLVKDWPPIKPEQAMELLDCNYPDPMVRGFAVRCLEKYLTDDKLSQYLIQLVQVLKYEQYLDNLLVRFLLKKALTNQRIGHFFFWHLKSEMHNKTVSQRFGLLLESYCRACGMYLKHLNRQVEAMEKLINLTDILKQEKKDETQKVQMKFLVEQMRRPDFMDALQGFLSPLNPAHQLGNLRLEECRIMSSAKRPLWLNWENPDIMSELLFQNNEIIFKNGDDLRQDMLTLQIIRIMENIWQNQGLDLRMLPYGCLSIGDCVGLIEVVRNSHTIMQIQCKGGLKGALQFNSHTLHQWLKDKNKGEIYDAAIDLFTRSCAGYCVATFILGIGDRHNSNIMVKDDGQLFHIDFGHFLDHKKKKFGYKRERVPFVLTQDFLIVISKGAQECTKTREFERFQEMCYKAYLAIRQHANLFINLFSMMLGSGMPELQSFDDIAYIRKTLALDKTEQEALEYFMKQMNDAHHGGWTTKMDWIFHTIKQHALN
Target sequence in this assay (P27986 2-724 partner): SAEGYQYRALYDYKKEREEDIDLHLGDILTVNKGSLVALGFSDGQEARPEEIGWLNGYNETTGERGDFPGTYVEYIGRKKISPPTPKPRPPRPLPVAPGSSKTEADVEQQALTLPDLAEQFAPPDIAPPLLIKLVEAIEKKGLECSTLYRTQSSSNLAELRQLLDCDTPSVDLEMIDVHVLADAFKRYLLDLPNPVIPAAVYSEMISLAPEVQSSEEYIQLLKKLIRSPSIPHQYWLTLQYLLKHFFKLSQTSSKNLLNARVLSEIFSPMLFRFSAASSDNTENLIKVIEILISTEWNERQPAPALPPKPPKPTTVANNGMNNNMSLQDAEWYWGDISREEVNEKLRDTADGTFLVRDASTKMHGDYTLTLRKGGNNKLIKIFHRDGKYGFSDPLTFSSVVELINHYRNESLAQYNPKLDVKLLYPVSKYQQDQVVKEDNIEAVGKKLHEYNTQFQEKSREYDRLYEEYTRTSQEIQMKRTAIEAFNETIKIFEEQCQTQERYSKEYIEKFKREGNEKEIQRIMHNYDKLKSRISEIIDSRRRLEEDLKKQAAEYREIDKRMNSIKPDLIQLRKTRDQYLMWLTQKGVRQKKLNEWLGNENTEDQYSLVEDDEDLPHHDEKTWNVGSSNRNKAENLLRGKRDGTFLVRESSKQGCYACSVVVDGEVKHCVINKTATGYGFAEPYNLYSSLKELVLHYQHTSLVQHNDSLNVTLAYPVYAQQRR

p110γ [2] = target: T3, p110γ (Homo sapiens, UniProt P48736); design: method as in earlier work; details: Table S1, rows marked #; ref S1; read-out: IC50 p110γ WT; cited from earlier work
T3 construct: made in house; host or cells: Sf9 insect cells (baculovirus)

PI3Kβ^WT (p110β/p85α) = target: T4, PI3Kβ^WT (p110β/p85α) (Homo sapiens, UniProt P42338); assay: PI3K HTRF lipid kinase IC50 determination; type: biochemical
T4 construct: made in house; host or cells: Sf9 insect cells (baculovirus)
Method: as §1, §2, §3, §4

p110γ [3] = target: T3, p110γ; assay: PI3K HTRF lipid kinase IC50 determination; type: biochemical; details: Table S1, this study; a = N=2 individual data shown, b = N=1; read-out: IC50 p110γ WT
Method: as §1, §2

PI3Kα^WT [4] = target: T2, PI3Kα^WT; assay: FRET membrane binding assay (dansyl-PS liposomes); details: P1pY-activated 0.5 μM PI3Kα^WT; inhibitor 31.25 nM to 2 μM
Target sequence in this assay (P42336 whole entry): as the sequence (P42336 whole entry) above
Target sequence in this assay (P27986 whole entry partner): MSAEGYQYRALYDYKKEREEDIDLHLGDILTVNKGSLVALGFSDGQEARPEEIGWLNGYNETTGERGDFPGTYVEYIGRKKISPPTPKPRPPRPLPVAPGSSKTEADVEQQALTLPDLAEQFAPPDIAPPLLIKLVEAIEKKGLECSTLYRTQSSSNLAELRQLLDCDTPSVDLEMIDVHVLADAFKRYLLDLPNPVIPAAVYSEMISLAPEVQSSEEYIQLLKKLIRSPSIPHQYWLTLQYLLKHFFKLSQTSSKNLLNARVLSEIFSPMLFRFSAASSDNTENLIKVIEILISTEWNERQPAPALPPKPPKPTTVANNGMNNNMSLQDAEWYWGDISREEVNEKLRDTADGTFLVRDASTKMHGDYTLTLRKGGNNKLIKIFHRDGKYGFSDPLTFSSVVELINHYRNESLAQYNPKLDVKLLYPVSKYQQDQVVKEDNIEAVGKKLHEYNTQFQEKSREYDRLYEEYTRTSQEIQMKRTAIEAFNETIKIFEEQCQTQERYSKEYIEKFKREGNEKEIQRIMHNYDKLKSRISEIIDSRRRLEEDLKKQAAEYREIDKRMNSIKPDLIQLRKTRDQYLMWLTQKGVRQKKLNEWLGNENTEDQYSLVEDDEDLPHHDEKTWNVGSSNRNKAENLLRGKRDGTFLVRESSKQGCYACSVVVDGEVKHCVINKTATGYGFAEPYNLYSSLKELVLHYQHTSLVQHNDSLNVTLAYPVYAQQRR
Method: The FRET-based assay directly monitors the interaction by measuring energy transfer from tryptophan residues in PI3Kα to dansyl-labelled phosphatidylserine (PS) lipids embedded within the synthetic membrane.
Liposomes were prepared with PIP2: phosphatidylserine (PS): phosphatidlyethanol (PE): phosphatidylcholine (PC): Cholesterol (C): Sphingomyelin (S): Dansyl PS (Avanti polar lipids) in the percentage of 5: 20: 35: 15: 10: 5: 10. Inhibitors were solubilised in 100% DMSO, and were diluted to 10% DMSO with Buffer C (30 mM HEPES pH 7.5, 50 mM NaCl), before being serially diluted to desired concentrations in 30 mM HEPES pH 7.5, 50 mM NaCl with 10% DMSO. […] Compounds were used at 5-fold the final concentration and 2 μl was added to 5 μl of enzyme in a 384-well plate, the plate was sealed and the mixture was allowed to equilibrate at room temperature for 10 min with shaking at 450 rpm. Liposomes were then added to the mixture to give a final liposome concentration of 50 μg/ml and a final reaction volume of 10 μl, and the plate was incubated at room temperature for 10 min with shaking at 450 rpm. […] The FRET signal was measured as I-I0 (intensity at 520 nm for protein and liposome solution — intensity at 520 nm for liposome only solution). […] The compound only I-I0 was then subtracted from the I-I0 of the protein-compound complex. […] Data were then graphed and analysed with GraphPad Prism 6.

PI3Kβ^WT = target: T5, PI3Kβ^WT (Homo sapiens, UniProt P42338); assay: BLI membrane binding assay (immobilised liposomes); details: 4 µM inhibitor, 1 µM enzyme, +pY, 300 s
T5 construct: made in house; host or cells: Sf9 insect cells (baculovirus)
Method: (§6) Figure 6. […] The data are shown as Mean ± SD; PI3Kα^WT +pY n = 7; PI3Kα^WT +pY + GSK n = 5; PI3Kα^WT −pY n = 4; PI3Kα^WT −pY + GSK n = 3. (B) Effect of GSK on the BLI wavelength shift (λ) on membrane binding by PI3Kα^WT, the PI3Kα^E545K oncogenic mutant, class IA PI3Kβ^WT and class IA PI3Kδ^WT enzymes. In all experiments inhibitors were tested at 4 µM with 1 µM of the different enzymes and membrane binding was followed by BLI for 300 s.
as §5

PI3Kδ^WT = target: T6, PI3Kδ^WT (Homo sapiens, UniProt O00329); assay: BLI membrane binding assay (immobilised liposomes); details: 4 µM inhibitor, 1 µM enzyme, +pY, 300 s
T6 construct: made in house; host or cells: Sf9 insect cells (baculovirus)
Method: as §6, §5

PI3Kα^E545K = PI3Kα^E545K (Homo sapiens, UniProt P42336, E545K); assay: BLI membrane binding assay (immobilised liposomes); details: 4 µM inhibitor, 1 µM enzyme, +pY, 300 s
Method: as §6, §5

PI3Kα^H1047R = target: T7, PI3Kα^H1047R (Homo sapiens, UniProt P42336, H1047R); assay: BLI membrane binding assay (immobilised liposomes); details: pY activated, inhibitor:protein 4:1, Mean ± SEM
T7 construct: Full length PI3Kα^WT or PI3Kα^H1047R was diluted with Buffer D; made in house; host or cells: Sf9 insect cells (baculovirus)
Method: as §5

PI3Kα N345K mutant = PI3Kα N345K mutant (Homo sapiens, UniProt P42336, N345K); assay: BLI membrane binding assay, concentration response; details: P2pY activated; protein to GSK2126458 ratio 1:4
Method: as §5, with “6. […]” for “6.”
(§7) membrane binding parameters. (A) Concentration response curves for PI3Kα oncogenic mutant proteins. Data is shown as the Mean ± SEM (number of biosensors for each data point is n≥3). A one site-specific binding model was used to fit the data. The […]
as §2

PI3Kα G118D mutant = PI3Kα G118D mutant (Homo sapiens, UniProt P42336, G118D); assay: BLI membrane binding assay, concentration response; details: P2pY activated; protein to GSK2126458 ratio 1:4
Method: as §5, with “6. […]” for “6.”
as §7, §2

PI3Kα G106V mutant = PI3Kα G106V mutant (Homo sapiens, UniProt P42336, G106V); assay: BLI membrane binding assay, concentration response; details: P2pY activated; protein to GSK2126458 ratio 1:4
Method: as §5, with “6. […]” for “6.”
as §7, §2

PI3Kα C420R mutant = PI3Kα C420R mutant (Homo sapiens, UniProt P42336, C420R); assay: BLI membrane binding assay, concentration response; details: P2pY activated; protein to GSK2126458 ratio 1:4
Method: as §5, with “6. […]” for “6.”
as §7, §2

PI3Kα M1043I mutant = PI3Kα M1043I mutant (Homo sapiens, UniProt P42336, M1043I); assay: BLI membrane binding assay, concentration response; details: P2pY activated; protein to GSK2126458 ratio 1:4
Method: as §5, with “6. […]” for “6.”
as §7, §2

PI3Kα G1049R mutant = PI3Kα G1049R mutant (Homo sapiens, UniProt P42336, G1049R); assay: BLI membrane binding assay, concentration response; details: P2pY activated; protein to GSK2126458 ratio 1:4
Method: as §5, with “6. […]” for “6.”
as §7, §2

PI3Kδ^WT (p110δ/p85α) = target: T8, PI3Kδ^WT (p110δ/p85α) (Homo sapiens, UniProt O00329); assay: PI3K HTRF lipid kinase IC50 determination; type: biochemical; details: HTRF assay using PIP2 as substrate; Mean ± SD, n=2; enzyme 65 ng/ml; read-out: IC50 PI3K (third column of Table S3, probably PI3Kδ)
T8 construct: made in house; host or cells: Sf9 insect cells (baculovirus)
Method: as §1, §2, §3, §4

T7 sequence (P42336 whole entry H1047R): as the sequence (P42336 whole entry) above, with H1047R counted along it
T7 sequence (P27986 whole entry partner): as the sequence (P27986 whole entry partner) above
T3 sequence (P48736 whole entry, species assumed): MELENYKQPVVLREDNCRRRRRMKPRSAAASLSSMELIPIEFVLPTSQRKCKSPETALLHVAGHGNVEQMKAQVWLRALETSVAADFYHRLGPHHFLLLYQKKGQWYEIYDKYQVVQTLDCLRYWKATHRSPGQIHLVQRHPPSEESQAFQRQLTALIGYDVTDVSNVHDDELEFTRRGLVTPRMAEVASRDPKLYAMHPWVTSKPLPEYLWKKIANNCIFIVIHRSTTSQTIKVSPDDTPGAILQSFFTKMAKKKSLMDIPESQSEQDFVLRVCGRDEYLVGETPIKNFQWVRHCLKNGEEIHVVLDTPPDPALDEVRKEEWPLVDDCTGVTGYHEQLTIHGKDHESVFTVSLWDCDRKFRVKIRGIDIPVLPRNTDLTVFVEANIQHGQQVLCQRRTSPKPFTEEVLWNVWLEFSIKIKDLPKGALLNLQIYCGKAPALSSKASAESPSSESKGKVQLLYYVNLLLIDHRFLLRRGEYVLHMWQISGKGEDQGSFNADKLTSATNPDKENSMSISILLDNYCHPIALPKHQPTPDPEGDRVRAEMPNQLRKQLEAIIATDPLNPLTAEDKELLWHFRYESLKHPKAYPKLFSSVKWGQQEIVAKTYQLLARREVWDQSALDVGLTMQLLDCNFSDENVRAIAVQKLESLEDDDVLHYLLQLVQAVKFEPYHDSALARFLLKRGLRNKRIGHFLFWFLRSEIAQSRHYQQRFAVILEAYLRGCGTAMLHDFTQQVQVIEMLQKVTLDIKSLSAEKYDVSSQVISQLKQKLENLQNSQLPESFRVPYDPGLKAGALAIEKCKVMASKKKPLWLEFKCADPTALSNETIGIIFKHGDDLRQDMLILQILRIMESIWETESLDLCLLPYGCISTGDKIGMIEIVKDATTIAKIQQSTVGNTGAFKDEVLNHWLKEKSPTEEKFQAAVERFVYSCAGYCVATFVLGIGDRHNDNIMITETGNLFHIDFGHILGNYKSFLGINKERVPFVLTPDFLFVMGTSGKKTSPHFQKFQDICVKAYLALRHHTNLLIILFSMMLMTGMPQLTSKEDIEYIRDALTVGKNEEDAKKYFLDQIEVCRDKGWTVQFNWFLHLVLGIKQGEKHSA
T4 sequence (P42338 whole entry, species assumed): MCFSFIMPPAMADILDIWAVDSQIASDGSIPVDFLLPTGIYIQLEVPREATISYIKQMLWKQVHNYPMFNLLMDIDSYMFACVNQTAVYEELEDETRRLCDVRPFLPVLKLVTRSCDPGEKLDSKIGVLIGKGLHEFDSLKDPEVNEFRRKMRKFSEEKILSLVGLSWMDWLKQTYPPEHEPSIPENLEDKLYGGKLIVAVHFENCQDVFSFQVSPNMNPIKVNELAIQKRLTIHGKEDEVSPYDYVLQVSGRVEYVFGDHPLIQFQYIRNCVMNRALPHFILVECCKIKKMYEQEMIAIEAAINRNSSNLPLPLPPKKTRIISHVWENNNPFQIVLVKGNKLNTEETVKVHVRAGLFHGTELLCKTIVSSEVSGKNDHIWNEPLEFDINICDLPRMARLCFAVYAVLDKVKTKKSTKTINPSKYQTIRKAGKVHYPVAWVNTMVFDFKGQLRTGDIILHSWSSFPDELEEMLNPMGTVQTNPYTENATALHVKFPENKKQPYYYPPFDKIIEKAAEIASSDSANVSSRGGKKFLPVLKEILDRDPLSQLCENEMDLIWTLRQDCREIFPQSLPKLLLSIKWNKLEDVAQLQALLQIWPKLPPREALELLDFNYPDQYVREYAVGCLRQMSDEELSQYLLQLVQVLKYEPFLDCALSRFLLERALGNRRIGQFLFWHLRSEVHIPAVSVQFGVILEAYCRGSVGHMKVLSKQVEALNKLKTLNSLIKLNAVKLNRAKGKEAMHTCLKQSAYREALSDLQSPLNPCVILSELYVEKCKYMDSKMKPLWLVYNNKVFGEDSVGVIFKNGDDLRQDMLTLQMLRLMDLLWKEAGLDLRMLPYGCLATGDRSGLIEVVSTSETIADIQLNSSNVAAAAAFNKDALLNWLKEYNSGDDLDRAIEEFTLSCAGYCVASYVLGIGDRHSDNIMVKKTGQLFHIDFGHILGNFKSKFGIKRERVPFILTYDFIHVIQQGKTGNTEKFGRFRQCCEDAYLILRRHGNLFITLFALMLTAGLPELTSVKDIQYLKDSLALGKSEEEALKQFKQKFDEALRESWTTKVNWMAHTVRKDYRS
T4 sequence (P27986 whole entry partner, species assumed): as the sequence (P27986 whole entry partner) above
T1 sequence (P42336 whole entry): as the sequence (P42336 whole entry) above
T1 sequence (P27986 whole entry partner): as the sequence (P27986 whole entry partner) above
Sequence of PI3Kα N345K mutant (P42336 whole entry N345K): as the sequence (P42336 whole entry) above, with N345K counted along it
Sequence of PI3Kα N345K mutant (P27986 whole entry partner): as the sequence (P27986 whole entry partner) above

- IC50 (PI3Kα^WT (p110α/p85α)): 460 ± 170 nM
SMILES: COc1ncc(-c2ccc3cccc(-c4ccnnc4)c3c2)cc1NS(=O)(=O)c1ccc(F)cc1F [compound 6]

SMILES: Nc1ncnc2c1ncn2[C@@H]1O[C@H](COP(=O)(O)OP(=O)(O)NP(=O)(O)O)[C@@H](O)[C@H]1O [AMP-PNP]
- effect on P2pY-activated PI3Kα^WT membrane interaction (BLI wavelength shift) (PI3Kα^WT [1]): could promote the enzymes membrane interaction

SMILES: Cc1ccc([N+](=O)[O-])cc1S(=O)(=O)N(C)/N=C/c1cnc2ccc(Br)cn12 [PIK-75]
- IC50 (p110γ [2]): 43 ± 21 nM

- effect on P2pY-activated PI3Kα^WT membrane interaction (BLI wavelength shift) (PI3Kα^WT [1]): some evidence of positive modulation
SMILES: O=C1NC(=O)/C(=C/c2ccc(-c3ccc(F)cc3O)o2)S1 [AS252424]

- IC50 (PI3Kβ^WT (p110β/p85α); Table S1, this study, a = N=2 individual data shown, b = N=1, read-out: IC50 PI3Kβ WT): 64 nM and 113 nM
- IC50 (p110γ [3]): 4.6 nM and 3.2 nM
SMILES: Cc1nc(-c2cn3c(n2)-c2ccc(-c4cnn(C(C)(C)C(N)=O)c4)cc2OCC3)n(C(C)C)n1 [GDC0032]

- maximum reduction in FRET signal (PI3Kα^WT [4]): 50%
SMILES: FC(F)c1nc2ccccc2n1-c1nc(N2CCOCC2)nc(N2CCOCC2)n1 [ZSTK474, 2-(difluoromethyl)-1-[4,6-di(4-morpholinyl)-1,3,5-triazin-2-yl]-1H-benzimidazole]

- Bmax (binding capacity) of PI3Kα^WT membrane interaction in presence of inhibitor (PI3Kα^WT [1]; liposomes 0% PIP2 + 20% PS): 1.5 ± 0.1 λ nm
- Bmax (binding capacity) of PI3Kα^WT membrane interaction in presence of inhibitor (PI3Kα^WT [1]; liposomes 5% PIP2 + 20% PS): 1.9 ± 0.1 λ nm
- effect on PI3Kβ^WT membrane interaction (BLI) (PI3Kβ^WT): insensitive to GSK2126458
- effect on PI3Kδ^WT membrane interaction (BLI) (PI3Kδ^WT): insensitive to GSK2126458
- effect on PI3Kα^E545K membrane interaction (BLI) (PI3Kα^E545K): insensitive to regulation by GSK2126458
- maximum reduction in FRET signal (PI3Kα^WT [4]): 85%
- Bmax (binding capacity) of PI3Kα^H1047R membrane interaction in presence of inhibitor (PI3Kα^H1047R; liposomes 0% PIP2 + 20% PS): 4.3 ± 0.3 λ nm
- Bmax (binding capacity) of PI3Kα^H1047R membrane interaction in presence of inhibitor (PI3Kα^H1047R; liposomes 5% PIP2 + 0% PS): 4.6 ± 0.3 λ nm
- Bmax (binding capacity) of PI3Kα^H1047R membrane interaction in presence of inhibitor (PI3Kα^H1047R; liposomes 5% PIP2 + 20% PS): 5.0 ± 0.2 λ nm
- effect on G118D membrane interaction (BLI) (PI3Kα G118D mutant): changes in both capacity and affinity
- effect on M1043I membrane interaction capacity (BLI) (PI3Kα M1043I mutant): also sensitive to GSK2126458
- effect on G1049R membrane interaction capacity (BLI) (PI3Kα G1049R mutant): also sensitive to GSK2126458
SMILES: COc1ncc(-c2ccc3nccc(-c4ccnnc4)c3c2)cc1NS(=O)(=O)c1ccc(F)cc1F [GSK2126458]
- effect on N345K membrane interaction (BLI) (PI3Kα N345K mutant): sensitive to GSK2126458, with effects on the membrane interaction capacity
- effect on G106V membrane interaction capacity (BLI) (PI3Kα G106V mutant): largest decrease in capacity of all those tested
- effect on C420R membrane interaction (BLI) (PI3Kα C420R mutant): sensitive to GSK2126458, with effects on the membrane interaction capacity

- effect on P2pY-activated PI3Kα^WT membrane interaction (BLI wavelength shift) (PI3Kα^WT [1]): retained the ability to decrease
- IC50 (PI3Kβ^WT (p110β/p85α); HTRF assay using PIP2 as substrate, Mean ± SD, n=2, enzyme 400 or 300 ng/ml, read-out: IC50 PI3K (second column of Table S3, probably PI3Kβ)): 242000 ± 308000 nM
- IC50 (PI3Kδ^WT (p110δ/p85α)): 8600 ± 2100 nM
- IC50 (PI3Kα^WT (p110α/p85α)): 16800 ± 9100 nM
SMILES: COc1ncc(-c2ccc(-c3cnc4c(c3)CN(C)C4=O)s2)cc1NS(=O)(=O)c1ccc(F)cc1F [compound 7]

— PMC7617104 (Biochemical Journal, 2024)
